{"source": "patent US11938212B2", "about": "“Skin care compositions” (Colgate-Palmolive Company, priority 2022, dated 2024)", "key": {"[1]": {"tested_on": "human derived keratinocytes", "experiment": "ROS detection in H2O2-treated human derived keratinocytes (Example 3: alpha-tocopherol, EGT, niacinamide)", "assay_type": "cell-based", "conditions": "alpha-tocopherol 0.001% as printed, EGT 0.01%, niacinamide 0.01%; for % Decrease in ROS generated in keratinocyte by antioxidant treatment: 0.3 wt.% H2O2; for Fold Change, decrease in ROS generated in keratinocyte by antioxidant treatment (relative to untreated): vs F (0.1% DMSO + 0.3% H2O2)", "description": "Hydrogen peroxide treated cells were then treated with: alpha-tocopherol, ergothioneine and niacinamide, respectively and in combination.\nCellular ROS/Superoxide Detection Assay Kit (Abcam—ab139476)"}, "[2]": {"tested_on": "human derived keratinocytes", "experiment": "ROS detection in H2O2-treated human derived keratinocytes (Example 2: alpha-tocopherol, EGT, sodium PCA)", "conditions": "vs F (0.1 wt.% DMSO + 0.3 wt.% H2O2); alpha-tocopherol 0.001%, EGT 0.01%, Na PCA 0.01%; 30 min treatment", "protocol": "Keratinocytes were treated with exogenous 0.3 wt. % hydrogen peroxide to induce reactive oxygen species (ROS) production. […] Changes in ROS production were assessed using a ROS Detection Assay Kit and fluorescence microplate reader.\nCell Culture Treatment • 500 uL of each treatment sample was directly applied to the 24-well plates and incubated for 30 mins. • Post incubation: each well was washed with the wash buffer (1×) provided. • 250 uL of green Fluorescent (GF) dye containing media (2.5 uL of GF dye/250 uL of media) was then added to each well and incubate for 60 mins. • Post incubation, Fluorescence was read on a microplate reader at 490/525."}}, "data": [{"compound": "Cc1c(C)c2c(c(C)c1O)CC[C@@](C)(CCC[C@H](C)CCC[C@H](C)CCCC(C)C)O2", "note": "[Alpha-tocopherol, alpha-tocopherol]", "values": [{"measurement": "% Decrease in ROS generated in keratinocyte by antioxidant treatment", "setting": "[1]", "result": 20.79, "unit": "%"}, {"measurement": "Fold Change, decrease in ROS generated in keratinocyte by antioxidant treatment (relative to untreated)", "setting": "[1]", "result": "0.4-fold fold decrease"}, {"measurement": "Fold Change, decrease in ROS generated in keratinocyte by antioxidant treatment (relative to untreated)", "setting": "[2]", "result": "4.21-fold decrease"}]}, {"compound": "C[N+](C)(C)[C@@H](Cc1c[nH]c(=S)[nH]1)C(=O)[O-]", "note": "[EGT, Ergothioneine]", "values": [{"measurement": "% Decrease in ROS generated in keratinocyte by antioxidant treatment", "setting": "[1]", "result": 15.91, "unit": "%"}, {"measurement": "Fold Change, decrease in ROS generated in keratinocyte by antioxidant treatment (relative to untreated)", "setting": "[1]", "result": "0.31-fold fold decrease"}, {"measurement": "Fold Change, decrease in ROS generated in keratinocyte by antioxidant treatment (relative to untreated)", "setting": "[2]", "result": "4.43-fold decrease"}]}, {"compound": "O=C1CCC(C(=O)[O-])N1.[Na+]", "note": "(stereo not drawn) [Na PCA, sodium pyrrolidone carboxylic acid]", "values": [{"measurement": "% Decrease in ROS generated in keratinocyte by antioxidant treatment", "setting": "[1]", "result": 25.75, "unit": "%"}, {"measurement": "Fold Change, decrease in ROS generated in keratinocyte by antioxidant treatment (relative to untreated)", "setting": "[2]", "result": "2.25-fold decrease"}]}, {"compound": "NC(=O)c1cccnc1", "note": "[Niacinamide, niacinamide]", "values": [{"measurement": "Fold Change, decrease in ROS generated in keratinocyte by antioxidant treatment (relative to untreated)", "setting": "[1]", "result": "0.24-fold fold decrease"}]}]}
